Reference: ChEMBL document CHEMBL2169807, “Analysis of the structural and mechanistic factors in antioxidants that preserve mitochondrial function and confer cytoprotection” (Bioorg Med Chem, 2012)
Activity calls are given as the source filed them. The rule behind the calls is not given here.

Assays:
CCRF-CEM [1] = experiment: Cytoprotection in diethyl maleate-treated human CCRF-CEM cells 0.1 uM incubated for 17 hrs before diethyl maleate challenge by trypan blue dye exclusion method (reference value: 18 +/- 10%); assay type: functional
CCRF-CEM [2] = experiment: Cytoprotection in diethyl maleate-treated human CCRF-CEM cells 2.5 uM incubated for 17 hrs before diethyl maleate challenge by trypan blue dye exclusion method (reference value: 18 +/- 10%); assay type: functional
Homo sapiens [3] = organism: Homo sapiens; experiment: Preservation of mitochondrial membrane potential in diethyl maleate-treated human Friedreich's ataxia lymphocytes at 0.5 uM pre-incubated for 16 hrs before diethyl maleate challenge by FACS method (reference value: 25%); assay type: functional
Homo sapiens [4] = organism: Homo sapiens; experiment: Preservation of mitochondrial membrane potential in diethyl maleate-treated human Friedreich's ataxia lymphocytes at 2.5 uM pre-incubated for 16 hrs before diethyl maleate challenge by FACS method (reference value: 25%); assay type: functional
[5] = Cytoprotection in diethyl maleate-treated human Friedreich's ataxia lymphocytes incubated for 17 hrs before diethyl maleate challenge by trypan blue dye exclusion method; assay type: functional
Homo sapiens [6] = organism: Homo sapiens; experiment: Inhibition of lipid peroxidation in diethyl maleate-treated human Friedreich's ataxia lymphocytes at 5 uM pre-incubated for 16 hrs before diethyl maleate challenge by FACS method relative to untreated control; assay type: functional
CCRF-CEM [7] = experiment: Inhibition of diethyl maleate-induced ROS production in human CCRF-CEM cells at 0.25 to 2.5 uM incubated for 16 hrs by DCFH-DA dye staining based FACS method; assay type: functional, cell-based
Homo sapiens [8] = organism: Homo sapiens; experiment: Preservation of mitochondrial membrane potential in diethyl maleate-treated human Friedreich's ataxia lymphocytes at 1 uM pre-incubated for 16 hrs before diethyl maleate challenge by FACS method (reference value: 25%); assay type: functional
Bos taurus [9] = organism: Bos taurus; experiment: Inhibition of NADH oxidase activity in bovine heart sub-mitochondrial particles assessed as remaining enzyme activity at 10 uM by spectrophotometry relative to untreated control
Homo sapiens [10] = organism: Homo sapiens; experiment: Inhibition of lipid peroxidation in diethyl maleate-treated human Friedreich's ataxia lymphocytes at 2.5 uM pre-incubated for 16 hrs before diethyl maleate challenge by FACS method relative to untreated control; assay type: functional
Bos taurus [11] = organism: Bos taurus; experiment: Inhibition of NADH oxidase activity in bovine heart sub-mitochondrial particles assessed as remaining enzyme activity at 5 uM by spectrophotometry relative to untreated control
Bos taurus [12] = organism: Bos taurus; experiment: Inhibition of NADH oxidase activity in bovine heart sub-mitochondrial particles assessed as remaining enzyme activity at 1 uM by spectrophotometry relative to untreated control
CCRF-CEM [13] = experiment: Cytoprotection in diethyl maleate-treated human CCRF-CEM cells 0.5 uM incubated for 17 hrs before diethyl maleate challenge by trypan blue dye exclusion method (reference value: 18 +/- 10%); assay type: functional

Row | SMILES | Activity (CCRF-CEM [1]) [%] | Activity (CCRF-CEM [2]) [%] | Activity (Homo sapiens [3]) [%] | Activity (Homo sapiens [4]) [%] | EC50 [5] [nM] | inhibition (Homo sapiens [6]) [%] | inhibition (CCRF-CEM [7]) | Activity (Homo sapiens [8]) [%] | Activity (Bos taurus [9]) [%] | inhibition (Homo sapiens [10]) [%] | Activity (Bos taurus [11]) [%] | Activity (Bos taurus [12]) [%] | Activity (CCRF-CEM [13]) [%]
1 | Cc1c(N(C)C)nc(CCCCCCCCCCO)c(O)c1C | 42 | 92 | 60 | 70 | 560 | 97 | Active | 75 | 6 | 87 | 9 | 27 | 47
2 | Cc1cc(-n2c(C)ccc2C)nc(CCCCCCCCCCO)c1O | 18 | 26 | 35 | 52 | – | 39 | – | 44 | 43 | 20 | 49 | 71 | 23
3 | Cc1nc(N(C)C)nc(CCCCCCCCCCO)c1O | 76 | 94 | 68 | 86 | 380 | 91 | Active | 75 | 22 | 83 | 26 | 49 | 93
4 | Cc1cc(N2C(C)CCC2C)nc(CCCCCCCCCCO)c1O (stereo unspecified) | 88 | 93 | 66 | 83 | 150 | 97 | Dose-dependent effect | 72 | 27 | 90 | 59 | 78 | 90
5 | Cc1cc(N)nc(CCCCCCCCCCO)c1O | 28 | 78 | 42 | 65 | – | 74 | Active | 50 | 48 | 62 | 52 | 74 | 38
6 | COC1=C(OC)C(=O)C(CCCCCCCCCCO)=C(C)C1=O [IDEBENONE] | 34 | 88 | 47 | 75 | 730 | 77 | Active | 57 | 15 | 68 | 53 | 65 | 49
7 | Cc1cc(N(C)C)nc(CCCCCCCCCCO)c1O | 41 | 94 | 45 | 73 | 840 | 82 | Active | 54 | 25 | 71 | 42 | 85 | 59
8 | Cc1cc(N(C)C)nc(C)c1O | – | – | 29 | – | – | 3.9 | – | – | – | 3.5 | – | – | –
